Structures are written as SMILES.

The series can be described thus: Human HepG2 cell viability assay in 384 well format. It is filed as toxicity, cell-based. On the set-up: dose 125 nL, time 70.5 hour; concentration not given beside the values. The note with it: HepG2 cells, read-out: Inhibition.
Regarding `O=C(c1cc2c(s1)CCCC2)N1CCCC1Cn1cccn1` (centres undefined), the cytotoxicity at 70.5 h was -4.37%.

As for `COCC(=O)N1CCC2(CC1)COC(COCc1ccccn1)C2` (centres undefined), the cytotoxicity at 70.5 h came to 1.98%.

Take `COC(=O)c1ccc(Cl)c(NS(=O)(=O)c2cn(C)cn2)c1`: the cytotoxicity at 70.5 h worked out at 9.09%.

Take `CC1CCC(NC(=O)CNC2(c3cccc(Br)c3)CCOCC2)CC1` (centres undefined): the cytotoxicity at 70.5 h stood at 9.26%.

For the molecule `O=C(c1cccc2ncccc12)N1CCCC(n2ccnc2)C1` (centres undefined), the cytotoxicity at 70.5 h is -2.04%.

For `CN1CC(c2cc(O)nc(NCc3ccc(Cl)cc3)n2)CC1=O` (centres undefined), the cytotoxicity at 70.5 h is -5.19%.

On to `CC(C)c1nsc(N2CCn3c(nnc3-c3ccccc3)C2)n1`, for which the cytotoxicity at 70.5 h is -7.62%.

Consider `c1cncc(C[C@@H]2CC[C@H](CN3CCCOCC3)O2)c1`, for which the cytotoxicity at 70.5 h is -10.6%.

On to `Cc1cccc(CN2C(=O)CCC23CCNCC3)n1`, for which the cytotoxicity at 70.5 h is -9.48%.

On to `COC(=O)N(C)CCCC(=O)Nc1[nH]nc(-c2ccncc2)c1C`, for which the cytotoxicity at 70.5 h is -2.11%.

With `Fc1ccc(C2CN(c3ncnc4[nH]ncc34)CCO2)cc1` (centres undefined), the cytotoxicity at 70.5 h worked out at 12.2%.

For `CC(C)c1ccc(C(=O)N2CCOCC2CC(=O)c2ccco2)cn1` (centres undefined), the cytotoxicity at 70.5 h was -5.67%.

Consider `CN1CCC(N(C)CCC(=O)N2CCN(Cc3cccc(F)c3)CC2)C1` (centres undefined), for which the cytotoxicity at 70.5 h is -0.236%.

Turning to `Cc1cnc(C2CCCN(C(=O)c3c[nH]c(=O)[nH]c3=O)C2)s1` (centres undefined), the cytotoxicity at 70.5 h is -8.7%.

For `Cc1nccnc1N1Cc2cnn(Cc3ccc(F)cc3)c2C1`, the cytotoxicity at 70.5 h was -0.0825%.

Regarding `CC(C)NC(=O)Cn1cc(OCc2ccc(F)cc2)c(=O)cc1CO`, the cytotoxicity at 70.5 h is -4.49%.

Regarding `CC(C)N1CCN(C(=O)Nc2cnn(CC(N)=O)c2)CC1`, the cytotoxicity at 70.5 h worked out at 18.2%.

`CN(CC(=O)Nc1ccccc1)C(=O)CN(C)c1ccc(Cl)cn1`: the cytotoxicity at 70.5 h was -10.4%.

`Cc1ccc(-c2nc(CN(Cc3cccs3)C3CCS(=O)(=O)C3)cs2)o1` (centres undefined): the cytotoxicity at 70.5 h came to 13.7%.

For the molecule `COCc1noc(-c2nn(-c3ccc(F)cc3)c3c2CCC3)n1`, the cytotoxicity at 70.5 h was -8.74%.

In the case of `Cc1cc(C(C)NC(=O)c2cnc3onc(C)c3c2)c(C)o1` (centres undefined), the cytotoxicity at 70.5 h was -5.78%.

With `O=C(C1CCCCC1)N1CCCC([C@@H]2C[C@H](C(F)F)n3ncnc3N2)C1` (some centres undefined), the cytotoxicity at 70.5 h was -5.82%.

Regarding `O=C(NC[C@H]1CCCC[C@H]1O)c1ccc2nc(-c3ccco3)[nH]c2c1`, the cytotoxicity at 70.5 h was -1.94%.

For `CC(C)CC1(C(=O)NCCc2nncn2C2CC2)CCC1`, the cytotoxicity at 70.5 h is -3.78%.

Turning to `Cc1cccc(CNC(C)c2ccc(OCC(=O)NC3CC3)cc2)c1` (centres undefined), the cytotoxicity at 70.5 h is -0.442%.

As for `CCc1nc(C2CCCN2C(=O)c2nc(C)n3ccccc23)no1` (centres undefined), the cytotoxicity at 70.5 h is -7.79%.

On to `COCCO[C@H]1CCN(Cc2ccsc2)[C@H]1Cc1cccnc1`, for which the cytotoxicity at 70.5 h came out at 24.4%.

With `CN(Cc1nc2ccccc2[nH]1)C(=O)CN(C)c1ccccc1`, the cytotoxicity at 70.5 h was -2.68%.

Regarding `O=C(C1CCCO1)N1CCc2onc(-c3ccc(Cl)cc3)c2C1` (centres undefined), the cytotoxicity at 70.5 h was found to be 16.8%.

For `CC(CCc1ccccc1)N1CCC(C(=O)Nc2ccccn2)CC1` (centres undefined), the cytotoxicity at 70.5 h came out at 22%.

On to `COc1cccc(C)c1C(=O)N1CCc2ncnc(NCCO)c2CC1`, for which the cytotoxicity at 70.5 h was -7.07%.

As to `CC(NC(=O)NCC(C)(C)O)c1ccc(-c2cncnc2)cc1` (centres undefined), the cytotoxicity at 70.5 h is 19.1%.

`NC(=O)C1(CCCc2ccncc2)CCCN1` (centres undefined): the cytotoxicity at 70.5 h is -3.08%.

As for `CN(Cc1cnn(C)c1)C(CO)c1cccc(Br)c1` (centres undefined), the cytotoxicity at 70.5 h was -16.5%.

As to `CC(C)c1nnc2n1CCN(Cc1cccc3c1OCCO3)C2`, the cytotoxicity at 70.5 h turned out to be 30%.

As to `CCN(C(=O)CN1CCCC1c1cccs1)c1ccccc1C` (centres undefined), the cytotoxicity at 70.5 h was 30.3%.

As for `CN(CC1CC1)C(=O)CN(Cc1cccc(O)c1)C1CCC(O)CC1` (centres undefined), the cytotoxicity at 70.5 h was -6.77%.

Take `Cn1cc(Cl)c(CN2CCCC(Cn3cc(CO)nn3)C2)n1` (centres undefined): the cytotoxicity at 70.5 h is -6.23%.

With `CC(C)CCN1CCC2(CCCN(c3nncs3)C2)C1` (centres undefined), the cytotoxicity at 70.5 h was -5.61%.

As to `Cc1ccc(S(=O)(=O)n2ccn(C(=O)CC(C)C)c2=O)cc1`, the cytotoxicity at 70.5 h is -19.3%.

In the case of `Cc1ccc(C(=O)NC2CCN(CC(=O)N(C)c3ccccc3)CC2)o1`, the cytotoxicity at 70.5 h was -4.99%.

`O=C(NCCCO)C1(CC2CC(c3ccc(F)cc3)=NO2)CCOCC1` (centres undefined): the cytotoxicity at 70.5 h is -5.38%.

Take `CCCn1ccnc1CN1C[C@@H](CN2CCCCC2)[C@@H](CO)C1`: the cytotoxicity at 70.5 h was -2.74%.

For `CCCc1nnc2sc(C3CCS(=O)(=O)CC3)nn12`, the cytotoxicity at 70.5 h was -10.2%.

In the case of `Cc1cccc2cc(CNCCCN3CCOCC3)c(=O)[nH]c12`, the cytotoxicity at 70.5 h came out at 33.6%.

For `CC1(C)C(C(=O)NCCC2CN(Cc3c[nH]cn3)CCO2)C1(C)C` (centres undefined), the cytotoxicity at 70.5 h is -13.9%.

For the molecule `Cc1nc(N)c2ccc(C3CCCCN3)nc2n1` (centres undefined), the cytotoxicity at 70.5 h was -1.97%.

With `CNC(=O)c1cccc(NC(=O)c2ccnc(N(C)C)c2)c1C`, the cytotoxicity at 70.5 h is -0.673%.

`Cc1ccc(C(=O)N2C[C@@H]3CCCO[C@@H]3[C@H](N3CCCC3)C2)cn1`: the cytotoxicity at 70.5 h is 0.948%.

Turning to `CSC(C)C(=O)N(C)CCCc1cc(-c2ccccc2)no1` (centres undefined), the cytotoxicity at 70.5 h was determined as 27.1%.

Regarding `COc1cc(C(=O)Nc2nc(C)no2)cc(Cl)c1OC`, the cytotoxicity at 70.5 h was -3.51%.

Turning to `Cc1ccc(CC2COCCN(Cc3ccccc3)C2)nc1` (centres undefined), the cytotoxicity at 70.5 h is -2.48%.

Regarding `Cc1nc(CN(C)C(=O)c2cc(C)sc2NC(=O)C(C)(C)C)no1`, the cytotoxicity at 70.5 h was -11.2%.

Regarding `O=C(CCc1nc(Cl)n[nH]1)NC1CCCN(CC2CCCCC2)C1` (centres undefined), the cytotoxicity at 70.5 h was 0.564%.

Turning to `COC(=O)c1cc2c(=O)n(C3CCCC3)ccc2nc1C`, the cytotoxicity at 70.5 h is -15.4%.

For `COCCNC(=O)CSCc1nc(O)c2cc(C(C)C)sc2n1`, the cytotoxicity at 70.5 h is -8.44%.

Regarding `CCc1nccn1C1CCCN(C(=O)c2ccc3[nH]nnc3c2)C1` (centres undefined), the cytotoxicity at 70.5 h was -8.95%.

`NC(=O)CN1CCOCC(Cc2cccc(F)c2)C1` (centres undefined): the cytotoxicity at 70.5 h is -12.7%.

Take `CCN(Cc1ccncc1)c1cc(C2CCCNC2)nc(C)n1` (centres undefined): the cytotoxicity at 70.5 h is -7.35%.

Regarding `Cc1ncsc1CN1C[C@@H](O)[C@](O)(CNC(=O)c2ccccn2)C1`, the cytotoxicity at 70.5 h was -10.6%.

`Cc1cc(CN2CCN(C(c3ccccc3)c3ccccc3)CC2)no1`: the cytotoxicity at 70.5 h came out at 1.19%.

On to `CCOc1cccc(CCNC(=O)NC2CCc3[nH]ncc3C2)n1` (centres undefined), for which the cytotoxicity at 70.5 h worked out at 24.3%.

Turning to `CC(C)c1noc(OCC(=O)N2CCCCC2C)n1` (centres undefined), the cytotoxicity at 70.5 h was -2.39%.

`CN(Cc1nnc(C2CC2)o1)Cc1ccccc1-c1ccccc1`: the cytotoxicity at 70.5 h is -9.25%.

For `Cc1cnc(CNS(=O)(=O)CCC2CCCO2)o1` (centres undefined), the cytotoxicity at 70.5 h was -12.3%.

Take `Cc1cc(C(=O)Nc2ccn(CCCN3CCCC3)n2)no1`: the cytotoxicity at 70.5 h is 1.38%.

For `O=S(=O)(NCCn1ccc(-c2cccs2)n1)C1CC1`, the cytotoxicity at 70.5 h is -0.924%.

Take `CN1CCN(C2COC3(CCN(Cc4cccs4)CC3)C2)CC1` (centres undefined): the cytotoxicity at 70.5 h amounted to 4.27%.

With `Cc1nccc(CNC(=O)NC(c2ncc(C)s2)C2CC2)n1` (centres undefined), the cytotoxicity at 70.5 h was 17.4%.

Turning to `O=C(c1cccs1)N1CC[C@H](O)[C@@H]1Cc1ccccc1`, the cytotoxicity at 70.5 h was found to be 29.4%.

With `C=Cn1ncc(CN2C[C@@H]3CCCN3C[C@@H]2Cc2ccccc2)c1C`, the cytotoxicity at 70.5 h is -2.66%.

Regarding `CC(C)C(=O)N1CCCc2c(cnn2-c2ccccc2)C1`, the cytotoxicity at 70.5 h was -5.24%.

On to `COCC(=O)N1CCN(C(C)C(=O)NC(C)C)CC1` (centres undefined), for which the cytotoxicity at 70.5 h was 5.85%.

As for `C[C@@H](NC(=O)c1cnccn1)c1c(-c2ccc(Cl)cc2)noc1C(=O)O`, the cytotoxicity at 70.5 h was -5.53%.

On to `CN1CCN(C)C2(CCN(C(=O)CC(F)(F)F)CC2)C1=O`, for which the cytotoxicity at 70.5 h was 0.213%.

On to `c1cncc(CN2CC[C@@H]3O[C@H](COCCN4CCCC4)CC[C@@H]32)c1`, for which the cytotoxicity at 70.5 h turned out to be 5.3%.

Turning to `O=C(CC1OCCc2ccsc21)NCC1CC1` (centres undefined), the cytotoxicity at 70.5 h was -1.8%.

For the molecule `CNC(=O)CCc1cc(C2CCCN2S(C)(=O)=O)nc(C)n1` (centres undefined), the cytotoxicity at 70.5 h was -12.2%.

Consider `CC(Cn1cc(Br)cn1)C(=O)Nc1ccncc1` (centres undefined), for which the cytotoxicity at 70.5 h was determined as 6.88%.

On to `CCOc1ccc(CNC2CCCN(c3cccnn3)C2)cc1OC` (centres undefined), for which the cytotoxicity at 70.5 h amounted to 4.96%.

In the case of `NC(=O)CN1CCCN(C(=O)Cc2ccc3c(c2)OCCO3)CC1`, the cytotoxicity at 70.5 h is -11%.

Take `O=C(CCc1ccc(Cl)s1)N1CCCC(n2cncn2)C1` (centres undefined): the cytotoxicity at 70.5 h amounted to 11.3%.

With `NC(=O)c1cnc(NC2CCN(c3ccccc3)CC2)c(Cl)c1`, the cytotoxicity at 70.5 h was -1.28%.

With `CCN(CC)C1CCN(C(=O)NCc2c(C)noc2C)CC1`, the cytotoxicity at 70.5 h is -7.03%.

Turning to `Cc1noc(C)c1CNC(=O)NCCC(=O)N1CCCc2ccccc21`, the cytotoxicity at 70.5 h stood at 3.77%.

In the case of `COc1cc(NC(=O)c2ccccc2F)c(C(=O)N(C)C)cc1OC`, the cytotoxicity at 70.5 h was -10.5%.

`CNc1cc(CNC(=O)c2cccnc2)nc(-c2ccncc2)n1`: the cytotoxicity at 70.5 h was -1.87%.

`CN1CC[C@H]2CN(C(=O)COCc3nc4cc(F)ccc4[nH]3)C[C@H]21`: the cytotoxicity at 70.5 h came to 20.4%.

As for `O=C(C[S+]([O-])Cc1ccc(F)cc1)N1CCc2sccc2C1` (centres undefined), the cytotoxicity at 70.5 h is -9.59%.

For the molecule `O=C(c1ccco1)N1CC[C@H]2[C@H]1CC(=O)N2c1cccnc1`, the cytotoxicity at 70.5 h amounted to 21.7%.

Take `CCc1nc(CCNC(=O)Nc2cc(C(N)=O)sc2C)cs1`: the cytotoxicity at 70.5 h was found to be 17%.

`Cc1cnc(CN(C)C2CCN(Cc3ccc(Cl)s3)C2)o1` (centres undefined): the cytotoxicity at 70.5 h was -15.5%.

As for `CC(C)(C)OC(=O)N1CSC[C@@H]1C(=O)NCc1cccc(C#N)c1`, the cytotoxicity at 70.5 h is -0.236%.

Regarding `O=C(c1ccc[nH]1)N1CCc2nnc(Cn3cccc3)n2CC1`, the cytotoxicity at 70.5 h was -7.68%.

As to `CC1CCN(c2ccc(=O)n(CC(=O)N(C)Cc3ccccc3)n2)CC1`, the cytotoxicity at 70.5 h came to 16.3%.

Consider `CCc1nccn1CC(=O)N1CCN(C2CCc3ccccc3C2)CC1` (centres undefined), for which the cytotoxicity at 70.5 h was -13.3%.

`CCSCc1cccc(NCc2cccnc2)c1`: the cytotoxicity at 70.5 h was -14.7%.

Regarding `Cc1cc(NC(=O)c2ccc(N3CCOCC3)cc2)[nH]n1`, the cytotoxicity at 70.5 h is -1.56%.

Turning to `CN(Cc1cccc(O)c1)C(=O)c1ccc(CCC(C)(C)O)cc1`, the cytotoxicity at 70.5 h is 0.182%.

The values are drawn from ChEMBL document CHEMBL3507680, “University of Dundee, Gates Library screen for HepG2 cell viability”.
